# Structures can show the parent of a compound that is named as a salt.
# Tested on: TNFα
# Assay: LPS Stimulated Whole Blood Measuring TNFα Levels Assay
# Assay type: cell-based
# Conditions: 24 h, LPS 200 ng/ml, immunoassay, read-out: pIC50, TNFα levels in LPS stimulated whole blood (converted)
# Procedure: LPS Stimulated Whole Blood Measuring TNFα Levels Assay
# (§1) Activation of monocytic cells by agonists of toll-like receptors such as bacterial lipopolysaccharide (LPS) results in production of key inflammatory mediators including TNFα. Such pathways are widely considered to be central to the pathophysiology of a range of auto-immune and inflammatory disorders.
# Compounds to be tested are diluted to give a range of appropriate concentrations and 1 ul of the dilution stocks is added to wells of a 96 plate. Following addition of whole blood (130 ul) the plates are incubated at 37 degrees (5% CO2) for 30 min before the addition of 10 ul of 2.8 ug/ml lipopolysaccharides (LPS), diluted in complete RPMI 1640 (final concentration=200 ng/ml), to give a total volume of 140 ul per well. After further incubation for 24 hours at 37 degrees, 140 ul of PBS are added to each well. The plates are sealed, shaken for 10 minutes and then centrifuged (2500 rpm×10 min). 100 ul of the supernatant are removed and TNFα levels assayed by immunoassay (typically by MesoScale Discovery technology) either immediately or following storage at −20 degrees. Dose response curves for each compound was generated from the data and an IC50 value was calculated.
row,IC50 [µM],Structure (SMILES)
1,≤ 6.31,"CC(=O)N1c2ccc(-c3ccc(N(C)C)nc3)cc2[C@@H](NC(=O)OC(C)C)C[C@H]1C (racemic) [Example 48, 1-methylethyl {(cis)-1-acetyl-6-[6-(dimethylamino)-3-pyridinyl]-2-methyl-1,2,3,4-tetrahydro-4-quinolinyl}carbamate hydrochloride]"
2,≤ 6.31,"CC(=O)N1c2ccc(-c3cnc(N)nc3)cc2[C@@H](NC(=O)OC(C)C)C[C@H]1C (racemic) [Example 50, 1-methylethyl[(cis)-1-acetyl-6-(2-amino-5-pyrimidinyl)-2-methyl-1,2,3,4-tetrahydro-4-quinolinyl]carbamate hydrochloride]"
3,≤ 6.31,"CC(=O)N1c2ccc(-c3ccc(CO)cc3)cc2[C@H](NC(=O)OC(C)C)C[C@@H]1C (relative stereo) [Example 15, 1-methylethyl {(cis)-1-acetyl-6-[4-(hydroxymethyl)phenyl]-2-methyl-1,2,3,4-tetrahydro-4-quinolinyl}carbamate]"
4,≤ 6.31,"CC(=O)N1c2ccc(-c3ccn[nH]3)cc2[C@@H](NC(=O)OC(C)C)C[C@H]1C (racemic) [Example 31, 1-methylethyl[(cis)-1-acetyl-2-methyl-6-(1H-pyrazol-5-yl)-1,2,3,4-tetrahydro-4-quinolinyl]carbamate]"

# The remaining lines, values behind:
row,Structure (SMILES),IC50 [µM]
1,"CC(=O)N1c2ccc(-c3cnc(N4CCNCC4)cn3)cc2[C@@H](NC(=O)OC(C)C)C[C@H]1C (racemic) [Example 43, 1-methylethyl {(cis)-1-acetyl-2-methyl-6-[5-(1-piperazinyl)-2-pyrazinyl]-1,2,3,4-tetrahydro-4-quinolinyl}carbamate hydrochloride]",≤ 6.31
2,"CC(=O)N1c2ccc(-c3ncc(CN4CCCCC4)s3)cc2[C@@H](NC(=O)OC(C)C)C[C@H]1C (racemic) [Example 52, 1-methylethyl {(cis)-1-acetyl-2-methyl-6-[5-(1-piperidinylmethyl)-1,3-thiazol-2-yl]-1,2,3,4-tetrahydro-4-quinolinyl}carbamate hydrochloride]",≤ 6.31
3,"CC(=O)N1c2ccc(-c3ccc(N4CCOCC4)nc3)cc2[C@@H](NC(=O)OC(C)C)C[C@H]1C (racemic) [Example 10, 1-methylethyl {(cis)-1-acetyl-2-methyl-6-[6-(4-morpholinyl)-3-pyridinyl]-1,2,3,4-tetrahydro-4-quinolinyl}carbamate hydrochloride]",≤ 6.31
4,"CC(=O)N1c2ccc(-c3ccc(N4CCCCC4)nc3)cc2[C@@H](NC(=O)OC(C)C)C[C@H]1C (racemic) [Example 11, 1-methylethyl {(cis)-1-acetyl-2-methyl-6-[6-(1-piperidinyl)-3-pyridinyl]-1,2,3,4-tetrahydro-4-quinolinyl}carbamate hydrochloride]",≤ 6.31
5,"CC(=O)N1c2ccc(-c3ccc(CN4CCCC4)cc3)cc2[C@H](NC(=O)OC(C)C)C[C@@H]1C (relative stereo) [Example 30, 1-methylethyl {(cis)-1-acetyl-2-methyl-6-[4-(1-pyrrolidinylmethyl)phenyl]-1,2,3,4-tetrahydro-4-quinolinyl}carbamate hydrochloride]",≤ 6.31
6,"CNCc1cccc(-c2ccc3c(c2)[C@H](NC(=O)OC(C)C)C[C@H](C)N3C(C)=O)c1 [Example 111, 1-Methylethyl((2S,4R)-1-acetyl-2-methyl-6-{3-[(methylamino)methyl]phenyl}-1,2,3,4-tetrahydro-4-quinolinyl)carbamate hydrochloride]",≤ 6.31
7,"CC(=O)N1c2ccc(-c3ccc(CN4CCCCC4)cc3)cc2[C@@H](NC(=O)OC2CCCC2)C[C@H]1C (racemic) [Example 36, cyclopentyl {(cis)-1-acetyl-2-methyl-6-[4-(1-piperidinylmethyl)phenyl]-1,2,3,4-tetrahydro-4-quinolinyl}carbamate]",≤ 6.31
8,"CC(=O)N1c2ccc(-c3cnc(N4CCCCC4)nc3)cc2[C@@H](NC(=O)OC(C)C)C[C@H]1C (racemic) [Example 49, 1-methylethyl {(cis)-1-acetyl-2-methyl-6-[2-(1-piperidinyl)-5-pyrimidinyl]-1,2,3,4-tetrahydro-4-quinolinyl}carbamate hydrochloride]",≤ 6.31
9,"CC(=O)N1c2ccc(-c3ccc(C#N)cc3)cc2[C@H](NC(=O)OC(C)C)C[C@@H]1C [Example 120, 1-Methylethyl[(2S,4R)-1-acetyl-6-(4-cyanophenyl)-2-methyl-1,2,3,4-tetrahydro-4-quinolinyl]carbamate]",≤ 6.31
10,"CC(=O)N1c2ccc(-c3cc(CN4CCCCC4)co3)cc2[C@@H](NC(=O)OC(C)C)C[C@H]1C (racemic) [Example 18, 1-methylethyl {(cis)-1-acetyl-2-methyl-6-[4-(1-piperidinylmethyl)-2-furanyl]-1,2,3,4-tetrahydro-4-quinolinyl}carbamate]",≤ 6.31

# Tested on: IL-6
# Assay: Measurement of LPS Induced IL-6 Secretion from Whole Blood
# Assay type: cell-based
# Conditions: 24 h, LPS 200 ng/ml, immunoassay, read-out: pIC50, LPS induced IL-6 secretion from whole blood (converted)
# Procedure: Measurement of LPS Induced IL-6 Secretion from Whole Blood
# as §1, with “IL-6.” for “TNFα.”
# Compounds to be tested are diluted to give a range of appropriate concentrations of which 1 ul of the diluted stocks is added to a 96 well plate. Following addition of whole blood (130 ul) the plates are incubated at 37 degrees (5% CO2) for 30 min before the addition of 10 ul of 2.8 ug/ml LPS, diluted in complete RPMI 1640 (final concentration=200 ng/ml), to give a total volume of 140 ul per well. After further incubation for 24 hours at 37 degrees, 140 ul of PBS are added to each well. The plates are sealed, shaken for 10 minutes and then centrifuged (2500 rpm×10 min). 100 ul of the supernatant are removed and IL-6 levels assayed by immunoassay (typically by MesoScale Discovery technology) either immediately or following storage at −20 degrees. Concentration response curves for each compound was generated from the data and an IC50 value was calculated.
row,IC50 [µM],Structure (SMILES)
1,≤ 31.6,"CC(=O)N1c2ccc(-c3ccc(N)nc3)cc2[C@H](NC(=O)OC(C)C)C[C@@H]1C [Example 110, 1-methylethyl[(2S,4R)-1-acetyl-6-(6-amino-3-pyridinyl)-2-methyl-1,2,3,4-tetrahydro-4-quinolinyl]carbamate]"
2,≤ 31.6,"CC(=O)N1c2ccc(-c3nc(CCN)no3)cc2[C@H](NC(=O)OC(C)C)C[C@@H]1C [Example 70, 1-Methylethyl {(2S,4R)-1-acetyl-6-[3-(2-aminoethyl)-1,2,4-oxadiazol-5-yl]-2-methyl-1,2,3,4-tetrahydro-4-quinolinyl}carbamate hydrochloride]"
3,≤ 31.6,"CC(=O)N1c2ccc(-c3ncc[nH]3)cc2[C@H](NC(=O)OC(C)C)C[C@@H]1C [Example 86, 1-Methylethyl[(2S,4R)-1-acetyl-6-(1H-imidazol-2-yl)-2-methyl-1,2,3,4-tetrahydro-4-quinolinyl]carbamate]"
4,≤ 31.6,"CC(=O)N1c2ccc(-c3noc(CCN(C)C)n3)cc2[C@H](NC(=O)OC(C)C)C[C@@H]1C [Example 78, 1-Methylethyl((2S,4R)-1-acetyl-6-{5-[2-(dimethylamino)ethyl]-1,2,4-oxadiazol-3-yl}-2-methyl-1,2,3,4-tetrahydro-4-quinolinyl)carbamate hydrochloride]"
5,≤ 31.6,"CC(=O)N1c2ccc(-n3cnc(C)c3)cc2[C@H](NC(=O)OC(C)C)C[C@@H]1C (single isomer, unassigned) [Example 103]"

# More lines, now with the values behind:
row,Structure (SMILES),IC50 [µM]
1,"CC(=O)N1c2ccc(-c3cnn(CC(C)(C)O)c3)cc2[C@H](NC(=O)OC(C)C)C[C@@H]1C [Example 109, 1-Methylethyl {(2S,4R)-1-acetyl-6-[1-(2-hydroxy-2-methylpropyl)-1H-pyrazol-4-yl]-2-methyl-1,2,3,4-tetrahydro-4-quinolinyl}carbamate]",≤ 31.6
2,"CC(=O)N1c2ccc(-c3ccccc3)cc2[C@H](NC(=O)OC(C)C)C[C@@H]1C [Example 94, 1-Methylethyl[(2S,4R)-1-acetyl-2-methyl-6-phenyl-1,2,3,4-tetrahydro-4-quinolinyl]carbamate]",≤ 31.6
3,"CC(=O)N1c2ccc(-n3cnc(C)c3)cc2[C@H](NC(=O)OC(C)(C)C)C[C@@H]1C (relative stereo) [Example 123, 1,1-Dimethylethyl[(cis)-1-acetyl-2-methyl-6-(4-methyl-1H-imidazol-1-yl)-1,2,3,4-tetrahydro-4-quinolinyl]carbamate]",≤ 31.6
